Laboratory results: patent publication US9155814B2, “Nanostructured material formulated with bone cement for effective antibiotic delivery” (priority 2009, dated 2015)

Assay: In vitro drug release study in PBS buffer
Format: physicochemical
Details: for amount released as a percentage to the amount loaded: after 80 days, MSN-functionalized bone cement loaded with gentamicin and vancomycin, FIG. 13; for percentage released: over 70 days, MSN functionalized bone cement loaded with gentamicin and ibuprofen, FIG. 14; for percentage released from the bone cement: MSN-formulated bone cement loaded with gentamicin and indomethacin, FIG. 15, 80 days stated for gentamicin; for gentamicin released: FIG. 8
Experimental: The drug release study was conducted by socking two cylinder samples of each composition in 5 ml PBS buffer (pH 7.4). The sample was put in an incubator shaker operated at 37° C. and 40 rpm. The release medium was withdrawn at predetermined time intervals, and replaced with fresh PBS buffer (5 ml) each time. The accumulative amount of gentamicin released was calculated based on the initial weight of bone cement cylinder and the drug content. The gentamicin release was followed for 80 days.
The o-phthaldialdehyde was used as a derivatizing agent to react with the amino groups of gentamicin and yield chromophoric products. The reaction was carried out making 1 ml of our problem gentamicin in solution react with 1 ml of isopropanol (to avoid the precipitation of the products formed) and 1 ml of o-phthaldialdehyde reagent. After fully mixed, the concentration of gentamicin sulfate was determined by the UV absorbance at 332 nm.
The concentration of ibuprofen, vancomycin and indomethacin was directly determined by UV-vis detection without the presence of reactive reagent.

| Molecule | amount released as a percentage to the amount loaded | percentage released | percentage released from the bone cement | gentamicin released when loaded alone (MSN-functionalized bone cement, gentamicin alone) | gentamicin released (SmartSet HV composite bone cement with 2 wt % of MSN) | gentamicin released (SmartSet HV composite bone cement with 6.0 wt % of MSN) |
| --- | --- | --- | --- | --- | --- | --- |
| CN[C@H](CC(C)C)C(=O)N[C@H]1C(=O)N[C@@H](CC(N)=O)C(=O)N[C@H]2C(=O)N[C@H]3C(=O)N[C@H](C(=O)N[C@H](C(=O)O)c4cc(O)cc(O)c4-c4cc3ccc4O)[C@H](O)c3ccc(c(Cl)c3)Oc3cc2cc(c3O[C@@H]2O[C@H](CO)[C@@H](O)[C@H](O)[C@H]2O[C@H]2C[C@](C)(N)[C@H](O)[C@H](C)O2)Oc2ccc(cc2Cl)[C@H]1O [vancomycin] | 31% |  |  |  |  |  |
| CC(C)Cc1ccc(C(C)C(=O)O)cc1 (stereo not drawn) [ibuprofen] |  | 47% |  |  |  |  |
| gentamicin | 40.8% | 90% | 51% | 70% | much lower | more than 55% |
| COc1ccc2c(c1)c(CC(=O)O)c(C)n2C(=O)c1ccc(Cl)cc1 [indomethacin] |  |  | 15% |  |  |  |
